In US20190167647A1, “PHARMACEUTICAL COMPOSITION FOR STROKE TREATMENT BASED ON AMPK INHIBITION” (INDUSTRY ACADEMY COOPERATION FOUNDATION OF SEJONG UNIVERSITY, priority 2016, published 2019):

Columns and labels:
[1] = tested on: cultured cerebral cortex neurons of a mouse; experiment: Zinc ion permeable carrier test, ZinPyr-1; assay type: cell-based
Experimental: ZinPyr-1 is a fluorescent dye which has a lower Kd value than that of FluoZin-3 and is used to measure a change in a zinc concentration even at a lower concentration. Whether the drug #28 of the present invention can act as an ion permeable carrier was under observation using ZinPyr-1. More particularly, the cultured cerebral cortex neurons of a mouse were treated with ZinPyr-1 then treated with the drug #28 (0.05 μM) and clioquinol (0.5 μM) in a typically used neuronal cell culture medium, so as to determine a change in zinc ion concentrations in the neurons. Also, a non-treatment group was used as a control group.
Therefore, after adding a further 0.5 μM concentration of zinc to the cell culture medium, a change in zinc concentration in the cells was under observation.

[2] = tested on: cultured cerebral cortex neurons of a mouse; experiment: Zinc neurotoxicity inhibition, LDH assay (tertiary screening); assay type: cell-based; details: 300 μM zinc 10 min
Experimental: Cerebral cortex neurons of a mouse used in the present invention were extracted from the mouse embryos brain and cultured, followed by further culturing the same using a Dulbecco's modified Eagle's medium (DMEM, Gibco, Grand Island, N.Y., US) containing 5% fetal bovine serum (FBS) and 5% horse serum (HS) under conditions of 95% humidity, 5% CO2 and 37° C. temperature. For activation and differentiation of the above cells, these cells were proliferated at a density of 2×10^4 cells in 24-well tissue culture plate. Further, prior to treatment using zinc and the compounds, the cells were incubated in MEM medium without FBS and HS.
More particularly, the cultured cerebral cortex neurons of a mouse were briefly exposed to 300 μM zinc for 10 minutes, and then treated with the selected 40 drugs, respectively, in order to observe neuro-protective effects. A degree of neuronal death of these cells was quantified by LDH assay wherein effects of individual drugs were averaged to result in a numerical value, and separate experiments were performed on each of the selected drugs 4 times, respectively (FIG. 4).

[3] = Free zinc concentration by fluorescent dye (Newport green DCF, FluoZin-3); assay type: physicochemical
Experimental: Further, in conjunction with clioquinol (20 μM) or the drug #28 (20 μM), a zinc fluorescent dye, i.e., Newport green DCF (0.5 μM, Kd(Zn)=1 uM) or FluoZin-3 (0.5 μM, Kd(Zn)=15 nM) was used for measurement of free zinc concentration.

[4] = Calcium chelation with Fura-2 dye (test tube); assay type: physicochemical
Experimental: (§1) In order to determine whether the above result is obtained by the chelation of Ca^2+ ions other than the drug #28, protective effects of the drug #28 (10 to 60 μM) after treatment using ionomycin, which is a calcium ion permeable carrier (‘calcium ionophore’) directly increasing the intracellular calcium concentration, were under observation. Further, using a Fura-2 dye that is combined with calcium to represent fluorescence, it was monitored whether the drug #28 is combined with calcium on a test tube and represents chelating effects.

[5] = target: T1, recombinant AMPK (α2/β1/γ1) (Homo sapiens, UniProt P54646); experiment: AMPK enzymatic activity assay (CycLex kit); assay type: biochemical
T1 construct: purchased CycLex, Japan
T1 sequence (P54646 whole entry): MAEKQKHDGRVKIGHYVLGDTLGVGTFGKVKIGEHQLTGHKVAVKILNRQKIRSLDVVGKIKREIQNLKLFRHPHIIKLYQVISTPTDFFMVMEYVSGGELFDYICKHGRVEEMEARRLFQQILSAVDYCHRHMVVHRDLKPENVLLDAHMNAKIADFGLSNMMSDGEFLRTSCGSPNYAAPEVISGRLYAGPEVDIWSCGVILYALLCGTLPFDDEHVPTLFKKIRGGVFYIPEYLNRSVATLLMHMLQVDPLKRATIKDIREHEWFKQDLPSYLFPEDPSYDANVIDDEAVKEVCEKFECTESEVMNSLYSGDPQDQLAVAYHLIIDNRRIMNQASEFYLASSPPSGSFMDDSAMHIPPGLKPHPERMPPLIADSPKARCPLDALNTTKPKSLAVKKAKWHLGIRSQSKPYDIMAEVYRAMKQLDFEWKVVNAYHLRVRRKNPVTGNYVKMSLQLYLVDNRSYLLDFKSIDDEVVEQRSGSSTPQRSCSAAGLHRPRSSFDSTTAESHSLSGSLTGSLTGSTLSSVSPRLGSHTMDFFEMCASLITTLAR
T1 sequence (Q9Y478 whole entry partner): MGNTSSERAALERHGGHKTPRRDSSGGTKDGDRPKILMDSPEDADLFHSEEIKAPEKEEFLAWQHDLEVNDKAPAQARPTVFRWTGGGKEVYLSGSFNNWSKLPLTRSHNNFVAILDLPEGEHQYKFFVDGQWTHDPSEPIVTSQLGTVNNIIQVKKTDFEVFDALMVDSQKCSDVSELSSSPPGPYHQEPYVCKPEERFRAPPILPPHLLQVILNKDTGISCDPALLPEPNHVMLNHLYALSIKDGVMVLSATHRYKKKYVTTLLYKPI
T1 sequence (P54619 whole entry partner): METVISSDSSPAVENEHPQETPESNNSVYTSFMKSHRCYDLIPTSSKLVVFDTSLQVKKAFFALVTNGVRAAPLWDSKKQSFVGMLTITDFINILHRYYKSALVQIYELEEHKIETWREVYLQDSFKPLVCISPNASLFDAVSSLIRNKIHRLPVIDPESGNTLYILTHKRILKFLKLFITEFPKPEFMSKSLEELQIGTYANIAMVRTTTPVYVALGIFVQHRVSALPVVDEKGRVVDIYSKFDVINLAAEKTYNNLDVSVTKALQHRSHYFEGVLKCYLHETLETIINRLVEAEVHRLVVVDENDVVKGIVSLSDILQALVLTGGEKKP
Experimental: More particularly, AMPK enzymatic activity was measured by an AMPK activity assay kit (CycLex, Japan) and recombinant AMPK (α2/β1/γ1 CycLex, Japan).

[6] = tested on: male Sprague-Dawley (SD) rat; experiment: Permanent middle cerebral artery occlusion (MCAO) stroke model; assay type: in vivo
Experimental: More particularly, a permanent middle cerebral artery (MCA) occlusion model was prepared using a male Sprague-Dawley (SD) rat aged 8 to 9 weeks. At time points of 30 minutes before MCAO and 10 minutes after the same, cerebral blood flow (CBF) was measured by a laser-doppler flowmeter and the measured results are shown in Table 3 below. Then, 15 minutes after middle cerebral artery occlusion (MCAO), the compound #28, which is finally selected as an AMPK inhibitor (75 ng/3 μl), or a vehicle (10% DMSO) was provided to an area of 0.8 mm on a back and 1.2 mm on a lateral of bregma at a depth of 3.8 mm through intra-cerebroventricular injection. Thereafter, a degree of lack of movement (‘motor deficit’) was evaluated in the rat, in particular, standards for evaluation are classified as follows (Longa et al., 1989): no deficiency (normal); failure of extending the front foots when vertically stopping (mild); rotation on the opposite side (moderate); and rotation loss (loss of circling) or loss of reflex motion (serious deficit). After induction of ischemia in the rat model, the brain was obtained at the time of lapse of 24 hours, followed by determining a level of cerebral infraction by staining the brain with 2% 2,3,5-triphenyl tetrazolium chloride (TTC).

neuronal cells = experiment: Ionomycin (calcium ionophore) neurotoxicity; assay type: cell-based; details: 10 to 60 μM tested
Experimental: as §1

[7] = tested on: cultured cerebral cortex neurons of a mouse; experiment: Intracellular free zinc after zinc exposure, FluoZin-3 (confocal microscope, fluorometer); assay type: cell-based
Experimental: In order to monitor whether an actual free zinc concentration in neuronal cells is increased or not, the cultured cerebral cortex neurons of a mouse were pre-treated with a FluoZin-3 staining material, exposed to high concentration zinc, and then, treated with 4C01 (20 μM), 4C07 (20 μM) and the drug #28 (20, 50 μM). Thereafter, images of these treated neurons were observed using a confocal laser fluorescence microscope, and a fluorescent size was quantitatively measured using a fluorescence photometer (fluorometer).

mouse cortical cultures [8] = experiment: TPEN-induced neurotoxicity (LDH secretion); assay type: cell-based
Description: (§2) Generally, application of TPEN as a zinc chelator easily flowing into the cells causes a cell death in the form of typical apoptosis (EDTA is not introduced into the cells). When adding zinc to the above treatment, intracellular free zinc ions are retained thus to reduce neuronal death and further reduce caspase-3 protease activity in the apoptosis process. Under expectation such that: the drug #28 and clioquinol may not only serve as a chelator but also play a role of an ion permeable carrier; these drugs flow into cells as combined with zinc; thereafter, the zinc is removed from the drug because a concentration of free zinc in the cytoplasm is too low; therefore, the concentration of free zinc in the cytoplasm is increased thus to reduce neurotoxicity due to TPEN, caspase-3 activity and neurotoxicity (LDH secretion) were under observation after treatment using zinc, the drug #28 and clioquinol.

mouse cortical cultures [9] = experiment: TPEN-induced caspase-3 activity; assay type: cell-based
Description: as §2

## O=C1N=C(Nc2cccc(O)c2)S/C1=C\c1c[nH]c2ccccc12 [compound 28, (Z)-5-((1H-indol-3-yl)methylene)-2-((3-hydroxyphenyl)amino)thiazol-4(5H)-one]
[1]; #28 0.05 μM, clioquinol 0.5 μM
  increase of zinc in neurons, general culture conditions: not clearly demonstrated
[1]; further 0.5 μM zinc added to the cell culture medium
  increase of zinc in neurons, zinc-supplemented medium: significant increase in zinc
[2]
  inhibition of zinc toxicity: significantly inhibit zinc toxicity
[3]
  zinc affinity compared to clioquinol: considerably low compared to clioquinol
[3]; 20 μM, FluoZin-3 (FIG. 13)
  free zinc concentration, low concentration zinc: did not show remarkable effects
[3]; 20 μM, Newport green DCF (FIG. 12)
  free zinc concentration, high concentration zinc: exhibited effects of decreasing the free zinc concentration
[3]; 20 μM, Newport green DCF or FluoZin-3
  free zinc ions: reduce free zinc ions
[4]
  affinity to calcium ions versus zinc ions: lower affinity to calcium ions than zinc ions
[4]; Fura-2 dye, test tube
  chelating effects for calcium: shows the chelating effects for calcium in a high concentration
[5]
  remaining activity at 10 µM: 3.97%
[6]; 75 ng/3 μl intra-cerebroventricular 15 min after MCAO, TTC staining at 24 hours
  brain damage due to permanent MCAO: significantly inhibit brain damage
[6]; MCAO rat, 75 ng/3 μl intra-cerebroventricular
  Weight reduction: 43.8 ± 6.1 g
Neuronal cells
  concentration exhibiting toxicity protective effects against ionomycin: more than 40 μM
[7]; 4C01, 4C07 20 μM, #28 20, 50 μM, fluorometer
  increase in intracellular free zinc, fluorescence magnitude: inhibit an increase in intracellular free zinc to the similar level
[7]; high concentration zinc, 20, 50 μM, confocal microscope
  increase in free zinc in the neurons: significantly reduced
Mouse cortical cultures [8]
  neurotoxicity by TPEN: decrease neurotoxicity by TPEN
Mouse cortical cultures [9]
  caspase-3 activity induced by TPEN: significantly reduce caspase-3 activity induced by TPEN
